The source of these data is patent publication EP0061745A1, “Tetrahydroisoquinoline compounds, processes for preparation thereof and pharmaceutical composition containing them” (Tanabe Seiyaku Co., Ltd., priority 1981, dated 1982).

Assay [1] concerns spontaneously hypertensive rats (SHR). Put plainly: Blood-pressure lowering effect after oral administration to SHR. It counts as in vivo. Conditions: administered orally, dose of 50 mg/kg.
Another assay deals with SHR. Description: Hypotensive activity after repeated administration (tolerance). It counts as in vivo, rats. Conditions: administered to SHR for 15 consecutive days.
In assay [2] the test system is production of PG 12 in vascular tissues. Put plainly: Effect on production of PG I2 in vascular tissues (platelet lysate or aorta microsome). Format: biochemical. Conditions: pig's blood platelet lysate or microsome obtained from pig's aorta.

The structures appear in SMILES notation.

Take `CCCCCCCC[C@H](CN(CC)C(=O)N1Cc2ccccc2C[C@H]1C(=O)O)C(=O)OCC` [calcium (3S)-2-[N-((2R)-2-ethoxycarbonyl-n-decyl)-N-ethylcarbamoyl] - 1,2,3,4-tetrahydro-isoquinoline-3-carboxylate]: in assay [1], the “decrease in the blood pressure” value is “about 35 mmHg” and the “duration of blood-pressure lowering effect” value is “more than 6 hours”. In addition, in the assay on SHR, the “potency of hypotensive activity during repeated administration” value was “almost the same potency of its hypotensive activity”.
Consider `CCOC(=O)[C@H](CCc1ccccc1)CN(CC)C(=O)N1Cc2ccccc2C[C@H]1C(=O)O` [(3S)-2-[N-((2R)-2-ethoxycarbonyl-4-phenyl-n-butyl)-N-ethylcarbamoyl]-1,2,3,4-tetrahydroisoquinoline-3-carboxylic acid], for which, in assay [1], the “decrease in the blood pressure” value was “about 35 mmHg” and the “duration of blood-pressure lowering effect” value is recorded as “more than 6 hours”.
For `CCCCCCCCCC[C@H](CN(CC)C(=O)N1Cc2ccccc2C[C@H]1C(=O)O)C(=O)O` [(3S)-2-[N-((2R)-2-carboxy-n-dodecyl)-N-ethylcarbamoyl]-1,2,3,4-tetrahydroisoquinoline-3-carboxylic acid], the “increase in the formation of PG I2 as compared with a control group” value in assay [2] came out at 62%.
